Here are results for 14 compounds from US10377818B2, “Method of treating glioma” (The Board of Trustees of the Leland Stanford Junior …, priority 2015, dated 2019).

Like-named read-outs stand apart in the source and are kept apart here.

The subject of test [1] is SU-pcGBM2 cells. Nature of the test: EdU incorporation assay, proliferation index of pHGG cells (SU-pcGBM2). The format is cell-based, human. The following applies: for effect on the proliferative effect of active CM: 100 nM TRKB inhibitor ANA12 in combination with 500 nM NRXN; for effect on 50 nM NLGN3-induced increase in proliferation index: inhibitor 100 nM, EdU assay; for effect on proliferation index relative to aCSF control: recombinant candidate proteins at 100 nM for 24 hours; for potency of proliferation promotion compared with NLGN3: pHGG cells, dose curves 0-100 nM.

The test system of the next test is secreted NLGN3. Nature of the test: Secreted NLGN3 in active CM of acute cortical slices incubated with protease inhibitors, Western blot. In kind it is cell-based, mouse. Particulars: slices incubated with protease inhibitor during optogenetic stimulation, preliminary experiments. As for the experimental part:
(§1) Thy1::ChR2 or WT mice between the age of 4-7 weeks were briefly exposed to CO2, and immediately decapitated. Extracted brains were placed in oxygenated sucrose solution and sliced in 350-μm sections using a vibratome (Leica VT 1200S, Buffalo Grove, Ill.). Slices were then placed in buffering solution (aCSF; 119 mM NaCl, 11 mM D-glucose, 25 mM NaHCO3, 2.5 mM KCl, 1.2 mM NaH2PO4, 2.3 mM MgCl2, and 2.5 mM CaCl2) and allowed to recover for at least an hour. After recovery, slices were then moved into a 24 well plate and stimulated using a blue-light LED from a microscope objective. The stimulation paradigm mirrored in vivo experiments, using 20-Hz pulses of blue light for a 30 s on, 90 s off cycle over a period of 30 minutes. Surrounding medium was then collected for immediate use or frozen for future experiments.
A series of similar preliminary experiments were performed in which acute cortical slices were incubated with different protease inhibitors during optogenetic stimulation and then the active CM was analyzed by Western blot for secreted NLGN3.
Role for MMP9 in NLGN3 secretion: Acute cortical slices from Thy1::ChR2 mice were optogenetically-stimulated in the presence or absence of protease inhibitors as indicated. Conditioned media was analyzed by Western blot for secreted NLGN3 content.

For test [2], the system named is NLGN3 mRNA in SU-pcGBM2 cells. Nature of the test: qPCR of NLGN3 gene expression in SU-pcGBM2 cells. The format is cell-based, human. The following applies: for effect on soluble NLGN3-induced increase in NLGN3 gene expression: 50 nM NLGN3 plus inhibitor, BKM120 500 nM (FIG. 5E) or 100 nM (FIG. 29), RAD001 100 nM. For orientation: In qPCR the cycle at which signal appears reflects the starting amount.

For test [3], the system named is soluble NLGN3 in the CM (NLGN3 secretion). Nature of the test: Soluble NLGN3 in CM of optogenetically stimulated acute cortical slices, 2D-PAGE and mass spectrometry. The format is cell-based, mouse. The following applies: slices incubated with inhibitor during optogenetic stimulation; pilot experiment. As for the experimental part: as §1
Test [4] relates to SU-pcGBM2 cells. The format is cell-based, human.
A further test relates to pHGG cells. The test can be described thus: pHGG cell proliferation with active CM from slices stimulated in presence of protease inhibitor. The format is cell-based, human. The following applies: inhibitor present during optogenetic stimulation of slices. An excerpt: MMP inhibition abrogates activity-regulated glioma proliferation. Acute cortical slices were optogenetically-stimulated in the presence or absence of a protease inhibitor as in Example 14, and pHGG cells were exposed to the CM. As expected, active CM in the absence of protease inhibitors contained secreted NLGN3 (FIG. 37) and promoted glioma cell proliferation (FIG. 38).
MMP inhibition in situ reduces activity-regulated glioma cell proliferation in vitro Active CM from Thy1::ChR2 cortical slices were incubated with either the multi-MMP inhibitor batimastat (A) or the ADAM17 inhibitor TAPI (B) during optogenetic stimulation and the active CM collected. Unconditioned media (aCSF) with or without inhibitor was used in control wells. Data shown as mean±SEM. One-way ANOVA, *P<0.05, ***P<0.001. n.s.=P>0.05.

Regarding `O=C(Nc1ccccc1C(=O)NC1CCCCNC1=O)c1cc2ccccc2s1` (stereo not drawn) [ANA12, reference compound], the “effect on the proliferative effect of active CM” value in the test on SU-pcGBM2 cells [1] is “completely abrogates the proliferative effect of active CM”. Regarding `CC(C)ON(CC(=O)NO)S(=O)(=O)c1ccc(-c2ccccc2)cc1` [ARP100], the “secreted NLGN3 levels in active CM” value in the test on secreted NLGN3 is “No detectable decrease in secreted NLGN3”. With `Cl.Nc1cc(C(F)(F)F)c(-c2cc(N3CCOCC3)nc(N3CCOCC3)n2)cn1` [BKM120, 5-(2,6-dimorpholin-4-ylpyrimidin-4-yl)-4-(trifluoromethyl)pyridin-2-amine hydrochloride], the “effect on soluble NLGN3-induced increase in NLGN3 gene expression” value in test [2] (12 h) was “blocked the soluble NLGN3-induced increase in NLGN3 gene expression”. In addition, in test [2] (BKM120 alone, 12 h), the “effect on NLGN3 expression in the absence of soluble NLGN3 exposure” value is listed as “no effect on NLGN3 expression”. The “effect on 50 nM NLGN3-induced increase in proliferation index” value in the test on SU-pcGBM2 cells [1] was “blocked”. `CNC(=O)[C@@H](NC(=O)[C@H](CCCc1ccccc1)[C@H](C)N(O)C=O)C(C)(C)C` [GI254023X]: the “reduction in soluble NLGN3 in the CM” value in test [3] was around 50%. On to `O=C(NO)[C@@H](Cc1ccccc1)NS(=O)(=O)c1ccc(-c2ccccc2)cc1` [MMP2/9 inhibitor SCBT inhibitor II, (2R)—N-hydroxy-3-phenyl-2-[(4-phenylphenyl)sulfonylamino]propanamide], for which, in the test on secreted NLGN3, the “secreted NLGN3 levels in active CM” value is given as “significant decrease in NLGN3 levels”. Still for that read-out and setting: to `COc1ccc(S(=O)(=O)N2CCN(C(=O)OCc3ccccc3)CC2C(=O)NO)cc1` (stereo not drawn) [MMP9/13 Inhbitor II] belongs “significant decrease in NLGN3 levels”. As to `CO[C@H]1C[C@@H]2CC[C@@H](C)[C@@](O)(O2)C(=O)C(=O)N2CCCC[C@H]2C(=O)O[C@H]([C@H](C)C[C@@H]2CC[C@@H](OCCO)[C@H](OC)C2)CC(=O)[C@H](C)/C=C(\C)[C@@H](O)[C@@H](OC)C(=O)[C@H](C)C[C@H](C)/C=C/C=C/C=C/1C` [RAD001, reference compound], the “effect on soluble NLGN3-induced increase in NLGN3 gene expression” value in test [2] (12 h) is “prevented the feed-forward effect of NLGN3 on NLGN3 gene expression”. Moreover, the “effect on 50 nM NLGN3-induced increase in proliferation index” value in the test with SU-pcGBM2 cells [1] was “blocks 50 nM NLGN3-induced proliferation”. `NC1=N[C@H](O)[C@H]2[C@H]3O[C@]4(O)O[C@@H]([C@@H](O)[C@@]2(N1)[C@@H]4O)[C@]3(O)CO` [TTX, tetrodotoxin] came in with a proliferation index with SU-pcGBM2 cells [4] of around 0.25. Turning to “ApoE: Recombinant candidate protein from proteomic analyses of cortical slice conditioned media”, in the test with SU-pcGBM2 cells [1], the “effect on proliferation index relative to aCSF control” value is listed as “did not differ”. For the compound “BDNF: Recombinant brain-derived neurotrophic factor (R&D Systems), candidate mitogen”, in the test on SU-pcGBM2 cells [1], the “potency of proliferation promotion compared with NLGN3” value was “less potently than NLGN3” and the “effect on proliferation index relative to aCSF control” value is listed as “promote glioma cell proliferation”.

In the case of “EGF: Epidermal growth factor (Shenandoah), ligand known to stimulate the PI3K pathway”, the “effect on glioma cell NLGN3 expression” value in test [2] (50 nM EGF, 12 hour vs vehicle) is reported as “no effect was found”.

Turning to “GRP78: Recombinant 78-kDa glucose-regulated protein (Abcam), known glioma mitogen”, in the test on SU-pcGBM2 cells [1], the “potency of proliferation promotion compared with NLGN3” value was “less potently than NLGN3” and the “effect on proliferation index relative to aCSF control” value is “promote glioma cell proliferation”.

Take “NRXN1β: Recombinant neurexin-1β (R&D Systems), binds NLGN3 with high affinity, used to deplete NLGN3”: the “effect on the proliferative effect of active CM” value in the test on SU-pcGBM2 cells [1] was “completely abrogates the proliferative effect of active CM”. Further, in the test with SU-pcGBM2 cells [1] (NRXN1β alone (500 nM) added to aCSF or to CM from WT cortical slices), the “effect on proliferation index” value is reported as “no effect on proliferation index”. Also, the proliferation index came to 0.28±0.01 with SU-pcGBM2 cells [1] (pHGG cells exposed to 50 nM NLGN3+500 nM NRXN1β) and 0.34±0.01 with SU-pcGBM2 cells [1] (pHGG cells exposed to Thy1::ChR2 CM+NRXN1β (500 nM)).

Take TAPI: the “effect on the mitogenic effect of active CM” value in the test on pHGG cells is on record as “did not alter the mitogenic effect of active CM”. Besides, the “secreted NLGN3 levels in active CM” value is “no effect on NLGN3 levels was observed” in the test with secreted NLGN3 and “did not decrease NLGN3 levels” in the test on secreted NLGN3 (listed as ADAM17 inhibitor).
